Assay results from patent US8852664B2, “Neo-menthyl derivatives as flavor materials” (Symrise AG, priority 2008, dated 2014).

Legend:
Format in all cases: in vivo
[1] = Flavor profile determined by a trained panel of at least 5 testers; conditions: trained panel of at least 5 testers, tasting against a 0.5% strength salt and a 0.5% strength sugar solution
Description: The flavor profiles were determined by a trained panel of at least 5 testers by tasting against a 0.5% strength salt and a 0.5% strength sugar solution

[2] = Saltiness of a stock tasted against a reference series of the same stock with different salt contents; conditions: reference series 0.2%, 0.4%, 0.5% salt
From the text: In another test, the saltiness of a stock having a salt content of 0.3% and 5 ppm of an equimolar mixture of 1-(3-hydroxy-propyl)-3-((1S,2S,5R)-2-isopropyl-5-methyl-cyclohexyl)-urea (3) and 1-(3-hydroxy-propyl)-3-((1R,2R,5S)-2-isopropyl-5-methyl-cyclohexyl)-urea (4) added was tasted. The testers evaluated this stock against a reference series of this same stock with salt contents of 0.2%, 0.3%, 0.4% and 0.5%. The saltiness of the stock with a salt content of 0.3% and 5 ppm of an equimolar mixture of 1-(3-hydroxy-propyl)-3-((1S,2S,5R)-2-isopropyl-5-methyl-cyclohexyl)-urea (3) and 1-(3-hydroxy-propyl)-3-((1R,2R,5S)-2-isopropyl-5-methyl-cyclohexyl)-urea (4) added was evaluated with a saltiness of 0.36% on average.
In another test, the saltiness of a stock having a salt content of 0.3% and 3 ppm of an equimolar mixture of (3-methoxy-propyl)-carbamic acid (1S,2S,5R)-2-isopropyl-5-methyl-cyclohexyl ester (9) and (3-methoxy-propyl)-carbamic acid (1R,2R,5S)-2-isopropyl-5-methyl-cyclohexyl ester (10) was tasted. The testers evaluated this stock against a reference series of this same stock with salt contents of 0.2%, 0.3%, 0.4% and 0.5%. […]

[3] = Flavor comparison in American beef extract base (FIG. 1), panel of trained testers; conditions: 1 ppm of 1:1 mixture in American beef extract base vs base with 0.05 wt. % MSG
From the text: This is also shown by the spider diagram appended as FIG. 1, in which an American beef extract as a base is compared with (i) such a base having 1 ppm of a 1:1 mixture of 1-((1S,2S,5R)-2-isopropyl-5-methyl-cyclohexyl)-3-(3-methoxy-propyl)-urea (1) and 1-((1R,2R,5S)-2-isopropyl-5-methyl-cyclohexyl)-3-(3-methoxy-propyl)-urea (2) added and (ii) with such a base having 0.05 wt. % of MSG (sodium glutamate) added. The observations above apply accordingly for all mixtures to be used according to the invention.
The flavor of a 0.5% American beef extract as the base (solid dark line) was compared with the aid of tasting by a panel of trained testers with the flavor firstly of such a base to which 1 ppm of a mixture of 1-((1S,2S,5R)-2-isopropyl-5-methyl-cyclohexyl)-3-(3-methoxy-propyl)-urea (1) and 1-((1R,2R,5S)-2-Isopropyl-5-methyl-cyclohexyl)-3-(3-methoxy-propyl)-urea (2) was added (solid light line), and secondly such a base to which 0.05 wt. % MSG was added (dotted line).
(§1) The testers evaluated the strength of the test directions indicated, in each case by specifying marks on a scale of from 0 (no corresponding flavor) to 8 (very strong corresponding flavor). The average values of the respective marks are represented.

[4] = Flavor comparison in chicken aroma base (FIG. 2), panel of trained testers; conditions: 1 ppm in chicken aroma base vs base with 0.2 wt. % standard aroma (containing MSG)
From the text: Here, a base for a chicken aroma is compared with (i) such a base having 1 ppm of the pure-enantiomer compound 1-((1S,2S,5R)-2-isopropyl-5-methyl-cyclohexyl)-3-(3-methoxy-propyl)-urea (1) added and (ii) with such a base having 0.2 wt. % of a standard aroma (containing MSG) added.
The flavor of the chicken base (solid dark line) was compared with the aid of tasting by a panel of trained testers with the flavor firstly of such a base to which 1 ppm of 1-((1S,2S,5R)-2-Isopropyl-5-methyl-cyclohexyl)-3-(3-methoxy-propyl)-urea (1) was added (solid light line), and secondly such a base to which 0.2 wt. % of a standard chicken aroma containing sodium glutamate was added (dotted line).
as §1

| Compound | Flavor Profile [1] | saltiness evaluated on average ([2]; stock with salt content 0.3% and 5 ppm added) [%] | flavor compared with sodium glutamate (MSG) [3] | flavor character compared with standard aroma containing MSG [4] | saltiness evaluated on average ([2]; stock with salt content 0.3% and 3 ppm added) [%] |
| --- | --- | --- | --- | --- | --- |
| 1-(3-Hydroxy-propyl)-3-((1S,2S,5R)-2-isopropyl-5-methyl-cyclohexyl)-urea (3)/1-(3-Hydroxy-propyl)-3-((1R,2R,5S)-2-isopropyl-5-methyl-cyclohexyl)-urea (4) [Synthesis Example 2] | fishy, salty, weakly umami | 0.36 | – | – | – |
| 1-((1S,2S,5R)-2-Isopropyl-5-methyl-cyclohexyl)-3-(3-methoxy-propyl)-urea (1)/1-((1R,2R,5S)-2-isopropyl-5-methyl-cyclohexyl)-3-(3-methoxy-propyl)-urea (2) [Synthesis Example 1] | sweet, salty, metallic, umami | – | clear umami flavor very closely approximating sodium glutamate (MSG), which also significantly enhances the saltiness of the base but without tasting unpleasantly sweet | – | – |
| COCCCNC(=O)N[C@H]1C[C@H](C)CC[C@H]1C(C)C [(1), 1-((1S,2S,5R)-2-isopropyl-5-methyl-cyclohexyl)-3-(3-methoxy-propyl)-urea] | salty, long-lasting, umami, no by notes | – | – | genuine MSG-like character | – |
| (3-Methoxy-propyl)-carbamic acid (1S,2S,5R)-2-isopropyl-5-methyl-cyclohexyl ester (9) and (3-methoxy-propyl)-carbamic acid (1R,2R,5S)-2-isopropyl-5-methyl-cyclohexyl ester (10) [Synthesis Example 5] | sweet, salty, umami, slightly bitter | – | – | – | 0.35 |
